Reference: the supplement of paper PMC9663587

Key:
THZ531 = compound: CN(C)C/C=C/C(=O)Nc1ccc(C(=O)N2CCC[C@@H](Nc3ncc(Cl)c(-c4c[nH]c5ccccc45)n3)C2)cc1 [THZ531]
BVD523 = compound: CC(C)Nc1cc(-c2c[nH]c(C(=O)N[C@H](CO)c3cccc(Cl)c3)c2)c(Cl)cn1 [BVD523]
Buparlisib/NVP-BKM120 = compound: Nc1cc(C(F)(F)F)c(-c2cc(N3CCOCC3)nc(N3CCOCC3)n2)cn1 [Buparlisib/NVP-BKM120]
Olaparib/AZD2281 = compound: O=C(c1cc(Cc2n[nH]c(=O)c3ccccc23)ccc1F)N1CCN(C(=O)C2CC2)CC1 [Olaparib/AZD2281]
LEE011/Ribociclib = compound: CN(C)C(=O)c1cc2cnc(Nc3ccc(N4CCNCC4)cn3)nc2n1C1CCCC1 [LEE011/Ribociclib]
R0-3306 = compound: C1=CC2=C(C=CC(=C2)C=C3C(=O)NC(=NCC4=CC=CS4)S3)N=C1 [R0-3306]
[1] = compound: CCc1cnn2c(NCc3ccc[n+]([O-])c3)cc(N3CCCC[C@H]3CCO)nc12
[2] = compound: CCCCOc1c(C(=O)c2c(F)cc(C)cc2F)c[nH]c2nncc1-2
[3] = compound: CC(=O)c1c(C)c2cnc(Nc3ccc(N4CCNCC4)cn3)nc2n(C2CCCC2)c1=O
AZD5363 = compound: NC1(C(=O)N[C@@H](CCO)c2ccc(Cl)cc2)CCN(c2nc[nH]c3nccc2-3)CC1 [AZD5363]
Cediranib/AZD2171 = compound: COc1cc2c(Oc3ccc4[nH]c(C)cc4c3F)ncnc2cc1OCCCN1CCCC1 [Cediranib/AZD2171]
Ceritinib/LDK378 = compound: Cc1cc(Nc2ncc(Cl)c(Nc3ccccc3S(=O)(=O)C(C)C)n2)c(OC(C)C)cc1C1CCNCC1 [Ceritinib/LDK378]
AZD1775 = compound: C=CCn1c(=O)c2cnc(Nc3ccc(N4CCN(C)CC4)cc3)nc2n1-c1cccc(C(C)(C)O)n1 [AZD1775]
senexin b = compound: CN1CCN(C(=O)c2ccc3cc(CCNc4ncnc5ccc(C#N)cc45)ccc3c2)CC1 [senexin b]
Dasatinib = compound: Cc1nc(Nc2ncc(C(=O)Nc3c(C)cccc3Cl)s2)cc(N2CCN(CCO)CC2)n1 [Dasatinib]
SHP099 = compound: CC1(CCN(CC1)C2=CN=C(C(=N2)N)C3=C(C(=CC=C3)Cl)Cl)N [SHP099]
Luminespib/NVP-AUY922 = compound: CCNC(=O)c1noc(-c2cc(C(C)C)c(O)cc2O)c1-c1ccc(CN2CCOCC2)cc1 [Luminespib/NVP-AUY922]
TGX221 = compound: CC1=CN2C(=O)C=C(N=C2C(=C1)C(C)NC3=CC=CC=C3)N4CCOCC4 [TGX221]
Volasertib/BI6727 = compound: CC[C@@H]1C(=O)N(C)c2cnc(Nc3ccc(C(=O)N[C@H]4CC[C@H](N5CCN(CC6CC6)CC5)CC4)cc3OC)nc2N1C(C)C [Volasertib/BI6727]
Paclitaxel = compound: CC(=O)O[C@H]1C(=O)[C@@]2(C)[C@H]([C@H](OC(=O)c3ccccc3)[C@]3(O)C[C@H](OC(=O)[C@H](O)[C@@H](NC(=O)c4ccccc4)c4ccccc4)C(C)=C1C3(C)C)[C@]1(OC(C)=O)CO[C@@H]1C[C@@H]2O [Paclitaxel]
BSJ-03-123 = compound: CC(=O)c1c(C)c2cnc(Nc3ccc(N4CCN(CCOCCOCCOCCNC(=O)COc5cccc6c5C(=O)N(C5CCC(=O)NC5=O)C6=O)CC4)cn3)nc2n(C2CCCC2)c1=O [BSJ-03-123]
[4] = compound: CNc1nc(-c2ccc3c(N)n[nH]c3c2)cc(N2C[C@@H](C(=O)NC3CCCCC3)CC[C@H]2C)n1
THZ-P1-2 = compound: CN(C)C/C=C/C(=O)NC1=CC=C(C=C1)C(=O)NC2=CC=CC(=C2)NC3=NC=NC(=C3)C4=CNC5=CC=CC=C54 [THZ-P1-2]
Cabozantinib = compound: COc1cc2nccc(Oc3ccc(NC(=O)C4(C(=O)Nc5ccc(F)cc5)CC4)cc3)c2cc1OC [Cabozantinib]
THZ1 = compound: CN(C)C/C=C/C(=O)Nc1ccc(C(=O)Nc2cccc(Nc3ncc(Cl)c(-c4c[nH]c5ccccc45)n3)c2)cc1 [THZ1]
Alpelisib/BYL719 = compound: Cc1nc(NC(=O)N2CCC[C@H]2C(N)=O)sc1-c1ccnc(C(C)(C)C(F)(F)F)c1 [Alpelisib/BYL719]
Doxorubicin = compound: COc1cccc2c1C(=O)c1c(O)c3c(c(O)c1C2=O)C[C@@](O)(C(=O)CO)C[C@@H]3O[C@H]1C[C@H](N)[C@H](O)[C@H](C)O1 [Doxorubicin]
Rucaparib = compound: CNCc1ccc(-c2[nH]c3cc(F)cc4c3c2CCNC4=O)cc1 [Rucaparib]
[5] = compound: Cc1nn(C)c(COc2ccc(N3CCN(S(=O)(=O)N(C)C)CC3)cc2)c1-c1cccc2c(CCCOc3cccc4ccccc34)c(C(=O)O)n(CCN3CCOCC3)c12
INK128/MLN0128 = compound: CC(C)n1nc(-c2ccc3oc(N)nc3c2)c2c(N)ncnc21 [INK128/MLN0128]
Neratinib/HKI272 = compound: CCOc1cc2ncc(C#N)c(Nc3ccc(OCc4ccccn4)c(Cl)c3)c2cc1NC(=O)/C=C/CN(C)C [Neratinib/HKI272]
Torin2 = compound: C1=CC(=CC(=C1)N2C(=O)C=CC3=CN=C4C=CC(=CC4=C32)C5=CN=C(C=C5)N)C(F)(F)F [Torin2]
Pictilisib/GDC0941 = compound: CS(=O)(=O)N1CCN(Cc2cc3nc(-c4cccc5[nH]ncc45)nc(N4CCOCC4)c3s2)CC1 [Pictilisib/GDC0941]
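Further: breast cancer and non-malignant breast epithelial cell lines, Deep Dye Drop or Dye Drop imaging, nine half-log doses, GR normalized to time-zero plates and DMSO-only controls.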

MDAMB231
GR50, 72 h (THZ531): 0.245 µM | GR50, 72 h (BVD523): 1.13 µM | GR50, 72 h (Buparlisib/NVP-BKM120): 1.51 µM | GR50, 72 h (Olaparib/AZD2281): > 10 µM | GR50, 72 h (LEE011/Ribociclib): 0.995 µM | GR50, 72 h (R0-3306): 8.73 µM | GR50, 72 h [1]: 0.0103 µM | GR50, 72 h [2]: 1.16 µM | GR50, 72 h [3]: 0.109 µM | GR50, 72 h (AZD5363): > 10 µM | GR50, 72 h (Cediranib/AZD2171): 5.1 µM | GR50, 72 h (Ceritinib/LDK378): 0.866 µM | GR50, 72 h (AZD1775): 0.0633 µM | GR50, 72 h (senexin b): > 10 µM | GR50, 72 h (Dasatinib): 0.0294 µM | GR50, 72 h (SHP099): > 10 µM | GR50, 72 h (Luminespib/NVP-AUY922): 0.0058 µM | GR50, 72 h (TGX221): > 10 µM | GR50, 72 h (Volasertib/BI6727): 0.00436 µM | GR50, 72 h (Paclitaxel): 0.00232 µM | GR50, 72 h (BSJ-03-123): 0.731 µM | GR50, 72 h [4]: > 10 µM | GR50, 72 h (THZ-P1-2): 4.94 µM | GR50, 72 h (Cabozantinib): 4.83 µM | GR50, 72 h (THZ1): 0.0662 µM | GR50, 72 h (Alpelisib/BYL719): > 10 µM | GR50, 72 h (Doxorubicin): 0.00504 µM | GR50, 72 h (Rucaparib): > 10 µM | GR50, 72 h [5]: > 10 µM | GR50, 72 h (INK128/MLN0128): 0.0218 µM | GR50, 72 h (Neratinib/HKI272): 1.43 µM | GR50, 72 h (Torin2): 0.0251 µM | GR50, 72 h (Pictilisib/GDC0941): 5.32 µM

HCC1419
GR50, 72 h (THZ531): 0.162 µM | GR50, 72 h (BVD523): > 10 µM | GR50, 72 h (Buparlisib/NVP-BKM120): 0.396 µM | GR50, 72 h (Olaparib/AZD2281): > 10 µM | GR50, 72 h (LEE011/Ribociclib): > 10 µM | GR50, 72 h (R0-3306): 8.88 µM | GR50, 72 h [1]: 0.0267 µM | GR50, 72 h [2]: 0.65 µM | GR50, 72 h [3]: 0.462 µM | GR50, 72 h (AZD5363): > 10 µM | GR50, 72 h (Cediranib/AZD2171): 5.06 µM | GR50, 72 h (Ceritinib/LDK378): 2.61 µM | GR50, 72 h (AZD1775): 2.59 µM | GR50, 72 h (senexin b): 10 µM | GR50, 72 h (Dasatinib): 0.825 µM | GR50, 72 h (SHP099): > 10 µM | GR50, 72 h (Luminespib/NVP-AUY922): 0.007 µM | GR50, 72 h (TGX221): > 10 µM | GR50, 72 h (Volasertib/BI6727): 0.0207 µM | GR50, 72 h (Paclitaxel): 0.00526 µM | GR50, 72 h (BSJ-03-123): 0.491 µM | GR50, 72 h [4]: 7.64 µM | GR50, 72 h (THZ-P1-2): 6.2 µM | GR50, 72 h (Cabozantinib): > 10 µM | GR50, 72 h (THZ1): 0.0611 µM | GR50, 72 h (Alpelisib/BYL719): 0.669 µM | GR50, 72 h (Doxorubicin): 0.0251 µM | GR50, 72 h (Rucaparib): > 10 µM | GR50, 72 h [5]: > 10 µM | GR50, 72 h (INK128/MLN0128): 0.00475 µM | GR50, 72 h (Neratinib/HKI272): 0.00115 µM | GR50, 72 h (Torin2): 0.0055 µM | GR50, 72 h (Pictilisib/GDC0941): 0.172 µM

T47D
GR50, 72 h (THZ531): 0.114 µM | GR50, 72 h (BVD523): 3.63 µM | GR50, 72 h (Buparlisib/NVP-BKM120): 0.248 µM | GR50, 72 h (Olaparib/AZD2281): > 10 µM | GR50, 72 h (LEE011/Ribociclib): 0.0057 µM | GR50, 72 h (R0-3306): 7.12 µM | GR50, 72 h [1]: 0.0199 µM | GR50, 72 h [2]: 0.0149 µM | GR50, 72 h [3]: 0.0275 µM | GR50, 72 h (AZD5363): 0.0138 µM | GR50, 72 h (Cediranib/AZD2171): 4.1 µM | GR50, 72 h (Ceritinib/LDK378): 1.56 µM | GR50, 72 h (AZD1775): 5.09 µM | GR50, 72 h (senexin b): 1.28 µM | GR50, 72 h (Dasatinib): > 10 µM | GR50, 72 h (SHP099): > 10 µM | GR50, 72 h (Luminespib/NVP-AUY922): 0.00607 µM | GR50, 72 h (TGX221): > 10 µM | GR50, 72 h (Volasertib/BI6727): 0.0315 µM | GR50, 72 h (Paclitaxel): 0.00353 µM | GR50, 72 h (BSJ-03-123): 0.00165 µM | GR50, 72 h [4]: 0.48 µM | GR50, 72 h (THZ-P1-2): 2.22 µM | GR50, 72 h (Cabozantinib): 7.88 µM | GR50, 72 h (THZ1): 0.0293 µM | GR50, 72 h (Alpelisib/BYL719): 0.153 µM | GR50, 72 h (Doxorubicin): 0.00189 µM | GR50, 72 h (Rucaparib): > 10 µM | GR50, 72 h [5]: > 10 µM | GR50, 72 h (INK128/MLN0128): 0.00526 µM | GR50, 72 h (Neratinib/HKI272): 0.423 µM | GR50, 72 h (Torin2): 0.00602 µM | GR50, 72 h (Pictilisib/GDC0941): 0.155 µM

HCC1569
GR50, 72 h (THZ531): 0.0461 µM | GR50, 72 h (BVD523): > 10 µM | GR50, 72 h (Buparlisib/NVP-BKM120): 0.908 µM | GR50, 72 h (Olaparib/AZD2281): > 10 µM | GR50, 72 h (LEE011/Ribociclib): > 10 µM | GR50, 72 h (R0-3306): 4.54 µM | GR50, 72 h [1]: 0.0164 µM | GR50, 72 h [2]: 0.0109 µM | GR50, 72 h [3]: > 3.16 µM | GR50, 72 h (AZD5363): 0.358 µM | GR50, 72 h (Cediranib/AZD2171): > 10 µM | GR50, 72 h (Ceritinib/LDK378): 4.5 µM | GR50, 72 h (AZD1775): 0.00634 µM | GR50, 72 h (senexin b): > 10 µM | GR50, 72 h (Dasatinib): 0.0769 µM | GR50, 72 h (SHP099): > 10 µM | GR50, 72 h (Luminespib/NVP-AUY922): 0.0107 µM | GR50, 72 h (TGX221): > 10 µM | GR50, 72 h (Volasertib/BI6727): 0.0189 µM | GR50, 72 h (Paclitaxel): 0.00208 µM | GR50, 72 h (BSJ-03-123): 2.86 µM | GR50, 72 h [4]: > 10 µM | GR50, 72 h (THZ-P1-2): 4.75 µM | GR50, 72 h (Cabozantinib): > 10 µM | GR50, 72 h (THZ1): 0.0283 µM | GR50, 72 h (Alpelisib/BYL719): 5.28 µM | GR50, 72 h (Doxorubicin): 0.0255 µM | GR50, 72 h (Rucaparib): > 10 µM | GR50, 72 h [5]: > 10 µM | GR50, 72 h (INK128/MLN0128): 0.0132 µM | GR50, 72 h (Neratinib/HKI272): 0.0891 µM | GR50, 72 h (Torin2): 0.0105 µM | GR50, 72 h (Pictilisib/GDC0941): 0.599 µM
